Results on seven molecules are retold here after ChEMBL document CHEMBL1201862, “PubChem BioAssay data set” (2004).

Test systems include HCT-15; UO-31; UACC-257; K562; SF-268; IGROV-1; NCI-H460; SK-MEL-28; SK-MEL-5; EKVX; HOP-92; SK-OV-3; UACC-62; SNB-75; CAKI-1; OVCAR-8; COLO 205; RXF 393; U-251; SF-539.
Assay in all cases: growth of human tumour cells (NCI), 48 h

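Cells were grown in 96-well plates and exposed to each compound for 48 hours at five concentrations; endpoints were interpolated linearly between bracketing concentrations, or set to the highest concentration if not reached. GI50 = concentration required for 50% inhibition of growth.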 Activity calls are given as the source filed them. Rule as the data show it: active = GI50 up to about 1.1 µM and inactive = higher.

Turning to `COc1cc(OC)cc(N2CCC(c3c(N)nc(N)nc3Cl)CC2)c1`, the GI50 with HCT-15 was 99.5 µM; in the assay on UO-31, 62.8 µM (inactive); with UACC-257, 43.7 µM (inactive); in the assay on K562, 31.6 µM (inactive); in the assay on SF-268, 98.2 µM (inactive); with IGROV-1 it was > 100 µM (inactive). Also, the GI50 with NCI-H460 is 53.7 µM (inactive); in the assay with SK-MEL-28, 52.8 µM (inactive); in the assay on SK-MEL-5 it was 24.8 µM (inactive); in the assay with EKVX, 95.3 µM (inactive); with HOP-92, 48.4 µM (inactive); in the assay on SK-OV-3 it was > 100 µM (inactive). The GI50 with UACC-62 is 52.6 µM (inactive); with SNB-75, 47.6 µM (inactive); with CAKI-1, > 100 µM (inactive); in the assay on OVCAR-8 it was > 100 µM (inactive); in the assay on COLO 205, 58.1 µM (inactive); in the assay with RXF 393, > 100 µM (inactive).
On to `CC1CC(c2ccc([N+](=O)[O-])cc2)=Nc2ccccc2[S+]1[O-]` (stereo unspecified), for which the GI50 in the assay with HCT-15 was 14.6 µM; in the assay with UO-31, 13 µM (inactive); in the assay with UACC-257, 20.2 µM (inactive); in the assay on K562, 17.5 µM (inactive); in the assay with SF-268 it was 20.1 µM (inactive); with IGROV-1, 15.6 µM (inactive). The GI50 in the assay with NCI-H460 was 17.1 µM (inactive); in the assay with SK-MEL-28 it was 20 µM (inactive); with SK-MEL-5, 15.5 µM (inactive); in the assay on EKVX it was 23.4 µM (inactive); in the assay on HOP-92, 33.1 µM (inactive); with SK-OV-3, 23 µM (inactive). Further, the GI50 in the assay on UACC-62 is 17.7 µM (inactive); in the assay with SNB-75, 21.4 µM (inactive); in the assay with CAKI-1, 20.9 µM (inactive); in the assay with OVCAR-8, 15.5 µM (inactive); in the assay with COLO 205, 18 µM (inactive); in the assay on RXF 393, 11.1 µM (inactive). In addition, the results for the GI50 with U-251 and in the assay with SF-539 were 13.6 µM (inactive) and 21.8 µM (inactive), respectively.
Turning to `C=C(CO)C(=O)OC1CC(=C)C2CC(O)C(C)C2C2OC(=O)C(=C)C12` (stereo unspecified), the GI50 with HCT-15 is 19.1 µM; with UO-31 it was 16.2 µM (inactive); in the assay on UACC-257, 15.6 µM (inactive); in the assay on K562 it was 31.3 µM (inactive); in the assay with SF-268 it was 20.7 µM (inactive); with IGROV-1 it was 18.9 µM (inactive). Also, the GI50 is 35.8 µM (inactive) with NCI-H460; 24.3 µM (inactive) with SK-MEL-28; 24.3 µM (inactive) in the assay on SK-MEL-5; 40.9 µM (inactive) in the assay with EKVX; 32.4 µM (inactive) with HOP-92; 30.4 µM (inactive) in the assay with SK-OV-3. Further, the GI50 was 16.6 µM (inactive) in the assay on UACC-62; 19 µM (inactive) with SNB-75; 19.3 µM (inactive) in the assay on CAKI-1; 27.3 µM (inactive) in the assay with OVCAR-8; 34.2 µM (inactive) in the assay with COLO 205; 20 µM (inactive) in the assay with RXF 393. The GI50 is 26.7 µM (inactive) with U-251 and 18 µM (inactive) with SF-539.
Take `NC(=O)c1ncn2c1CNC(=O)C2`: the GI50 in the assay with HCT-15 was greater than 100 µM; in the assay on UO-31, > 100 µM (inactive); with UACC-257, > 100 µM (inactive); in the assay on K562, > 100 µM (inactive); in the assay on SF-268 it was > 100 µM (inactive); with IGROV-1, > 100 µM (inactive). Further, the GI50 in the assay with NCI-H460, in the assay on SK-MEL-28, in the assay with SK-MEL-5, in the assay on EKVX, with HOP-92 and in the assay with SK-OV-3 was > 100 µM (inactive) each time. Also, the GI50 in the assay with UACC-62, in the assay on SNB-75, with CAKI-1, with OVCAR-8, in the assay on COLO 205 and in the assay with RXF 393 was > 100 µM (inactive) throughout. For the same molecule, the GI50 in the assay on U-251 and in the assay with SF-539 was > 100 µM (inactive) each time.
As for `CCCCCCNC(=O)C(C)C1CCC2(C)C=CC(=O)C(C)=C2C1O` (stereo unspecified), the GI50 with HCT-15 was greater than 100 µM; in the assay with UO-31 it was > 89.9 µM (inactive); in the assay with UACC-257, > 94.8 µM (inactive); with K562, 68.5 µM (inactive); with SF-268, > 100 µM (inactive); in the assay with IGROV-1, > 100 µM (inactive). The GI50 in the assay with NCI-H460 was > 100 µM (inactive); with SK-MEL-28 it was > 100 µM (inactive); in the assay with SK-MEL-5, > 74.1 µM (inactive); with EKVX, > 100 µM (inactive); with HOP-92, 45.2 µM (inactive); with SK-OV-3, > 100 µM (inactive). Further, the GI50 with UACC-62, with SNB-75, in the assay on CAKI-1, with OVCAR-8, in the assay on COLO 205 and with RXF 393 was > 100 µM (inactive) each time. Besides, the GI50 in the assay with U-251 and in the assay on SF-539 was > 100 µM (inactive) each time.
Consider `CN1CCC(C(=O)NNc2ccccc2)CC1`, for which the GI50 in the assay on HCT-15 was 1.61 µM; in the assay with UO-31 it was 3.16 µM (inactive); in the assay on UACC-257, 18.6 µM (inactive); with K562 it was 0.931 µM (active); with SF-268, 7.05 µM (inactive); in the assay on IGROV-1, > 36.6 µM (inactive). Further, the GI50 in the assay on NCI-H460 was 5.62 µM (inactive); in the assay on SK-MEL-28, 17.1 µM (inactive); in the assay on SK-MEL-5, 14.4 µM (inactive); in the assay with EKVX, 34.5 µM (inactive); in the assay on HOP-92, > 100 µM (inactive); in the assay on SK-OV-3, > 100 µM (inactive). Moreover, the GI50 in the assay with UACC-62 was 2.48 µM (inactive); with SNB-75, > 80.2 µM (inactive); with CAKI-1 it was > 20.6 µM (inactive); with OVCAR-8, 9.73 µM (inactive); in the assay on COLO 205 it was 3.08 µM (inactive); with RXF 393 it was > 100 µM (inactive). The GI50 in the assay on U-251 was > 17.7 µM (inactive); with SF-539, 7.87 µM (inactive).
Regarding `Cc1c2ccccc2c(CO)c2cc(F)c3ccccc3c12`, the GI50 is 40 µM (inactive) with UO-31; 47.3 µM (inactive) in the assay on UACC-257; 23.5 µM (inactive) with K562; 24.5 µM (inactive) in the assay with SF-268; 20.7 µM (inactive) in the assay on IGROV-1; 44 µM (inactive) in the assay on SK-MEL-28. The GI50 with SK-MEL-5 was 43.9 µM (inactive); in the assay with EKVX, 29.9 µM (inactive); in the assay with HOP-92, 32.4 µM (inactive); in the assay with SK-OV-3, 29 µM (inactive); with UACC-62, 27.2 µM (inactive); with SNB-75 it was 29.9 µM (inactive). Besides, the GI50 was 25.4 µM (inactive) in the assay on CAKI-1; 19.6 µM (inactive) in the assay on OVCAR-8; 15.6 µM (inactive) with COLO 205; 24.7 µM (inactive) in the assay with RXF 393; 21.3 µM (inactive) with U-251; 30.6 µM (inactive) in the assay with SF-539.
